Tested on: participants with SSc-RP
Experiment: Scleroderma Health Assessment Questionnaire (SHAQ), Phase 2a study Part A
Type: in vivo, human
Details: cilnidipine 10 mg and/or tadalafil 5 mg arms
Description: Part A—double-blind, placebo-controlled, parallel-group, dose selection, will assess the safety and efficacy of two doses of cilnidipine (10 mg and 20 mg), alone and in combination with tadalafil. A total of 36 participants will be randomized to one of six prespecified treatment arms. Refer to FIG. 1 for treatment arms in Part A of the study. Dosing last for 12 (±2) days in which participants will self-administer daily doses of assigned treatment in the morning. Each participant will take one capsule and one tablet to blind the active therapy being received.
The standard, validated, patient reported outcome measures tool for SSc patients, the SHAQ, will be collected at the time points specified in the study schedules (FIG. 2 and FIGS. 3A and 3B) to assess the participant's quality of life. The SHAQ includes a Raynaud's VAS that will also be reported separately.
Results: Patients in the study were administered the Scleroderma Health Assessment Questionnaire (SHAQ) at the time of study entry and during clinic visits following the treatment period. The study is a two-part, parallel arm design, prospective, double-blind, randomized study conducted in Australia (Flinders Medical Center). 27 patients were randomized into the first phase of the study, following which a DSMB meeting was held, which reviewed data on the primary study endpoint and key Raynaud's secondary endpoints. Data on the SHAQ was not available for the DSMB to review. The mITT population, in which any data was available post treatment was 24 patients was the analysis population for this first part of the study. The second part (i.e., part B) of the study will randomize 36 patients in a double blind, randomized, prospective, placebo controlled, crossover study. In the first part (i.e., Part A) of the study for which data is presented, patients were randomized into 6 groups, cilnidipine at two doses (10 and 20 mg) alone and in combination with tadalafil 5 mg, tadalafil 5 mg alone, and placebo. […] The DSMB recommended that the study proceed into its double blind prospective cross overpowered second phase and compare cilnidipine 20 mg alone to placebo.

CN1CC(=O)N2[C@H](c3ccc4c(c3)OCO4)c3[nH]c4ccccc4c3C[C@@H]2C1=O [Tadalafil, tadalafil]
SHAQ Finger Ulcers, Change from Baseline, Max: 1.00
SHAQ Finger Ulcers, Change from Baseline, Mean (SD): 0.250 (0.5000)
SHAQ Finger Ulcers, Change from Baseline, Median: 0.000
SHAQ Finger Ulcers, Change from Baseline, Min: 0.00
SHAQ Finger Ulcers, Change from Baseline, Q1: 0.000
SHAQ Finger Ulcers, Change from Baseline, Q3: 0.500
SHAQ Finger Ulcers, In Clinic Visit (Day 12), Max: 9.20
SHAQ Finger Ulcers, In Clinic Visit (Day 12), Mean (SD): 2.325 (4.5836)
SHAQ Finger Ulcers, In Clinic Visit (Day 12), Median: 0.050
SHAQ Finger Ulcers, In Clinic Visit (Day 12), Min: 0.00
SHAQ Finger Ulcers, In Clinic Visit (Day 12), Q1: 0.000
SHAQ Finger Ulcers, In Clinic Visit (Day 12), Q3: 4.650
SHAQ Finger Ulcers, Percent Change from Baseline, Max: 12.2%
SHAQ Finger Ulcers, Percent Change from Baseline, Mean (SD): 6.10 (8.623) %
SHAQ Finger Ulcers, Percent Change from Baseline, Median: 6.10%
SHAQ Finger Ulcers, Percent Change from Baseline, Min: 0.0%
SHAQ Finger Ulcers, Percent Change from Baseline, Q1: 0.00%
SHAQ Finger Ulcers, Percent Change from Baseline, Q3: 12.20%
SHAQ Overall Change in Severity, Change from Baseline, Max: 2.40
SHAQ Overall Change in Severity, Change from Baseline, Median: 0.700
SHAQ Overall Change in Severity, Change from Baseline, Min: −1.30
SHAQ Overall Change in Severity, Change from Baseline, Q1: −0.600
SHAQ Overall Change in Severity, Change from Baseline, Q3: 1.850
SHAQ Overall Change in Severity, In Clinic Visit (Day 12), Max: 9.10
SHAQ Overall Change in Severity, In Clinic Visit (Day 12), Mean (SD): 5.600 (4.2528)
SHAQ Overall Change in Severity, In Clinic Visit (Day 12), Median: 6.550
SHAQ Overall Change in Severity, In Clinic Visit (Day 12), Min: 0.20
SHAQ Overall Change in Severity, In Clinic Visit (Day 12), Q1: 2.200
SHAQ Overall Change in Severity, In Clinic Visit (Day 12), Q3: 9.000
SHAQ Overall Change in Severity, Percent Change from Baseline, Max: 100.0%
SHAQ Overall Change in Severity, Percent Change from Baseline, Mean (SD): 32.49 (51.568) %
SHAQ Overall Change in Severity, Percent Change from Baseline, Median: 26.790%
SHAQ Overall Change in Severity, Percent Change from Baseline, Min: −23.6%
SHAQ Overall Change in Severity, Percent Change from Baseline, Q1: −3.48%
SHAQ Overall Change in Severity, Percent Change from Baseline, Q3: 68.46%
SHAQ Standard disability index, Change from Baseline, Max: 0.00
SHAQ Standard disability index, Change from Baseline, Mean (SD): −0.063 (0.0722)
SHAQ Standard disability index, Change from Baseline, Median: −0.063
SHAQ Standard disability index, Change from Baseline, Min: −0.13
SHAQ Standard disability index, Change from Baseline, Q1: −0.125
SHAQ Standard disability index, Change from Baseline, Q3: 0.000
SHAQ Standard disability index, In Clinic Visit (Day 12), Max: 1.00
SHAQ Standard disability index, In Clinic Visit (Day 12), Mean (SD): 0.531 (0.4130)
SHAQ Standard disability index, In Clinic Visit (Day 12), Median: 0.563
SHAQ Standard disability index, In Clinic Visit (Day 12), Min: 0.00
SHAQ Standard disability index, In Clinic Visit (Day 12), Q1: 0.250
SHAQ Standard disability index, In Clinic Visit (Day 12), Q3: 0.813
SHAQ Standard disability index, Percent Change from Baseline, Max: 0.0%
SHAQ Standard disability index, Percent Change from Baseline, Mean (SD): −9.26 (8.486) %
SHAQ Standard disability index, Percent Change from Baseline, Median: −11.11%
SHAQ Standard disability index, Percent Change from Baseline, Min: −16.7%
SHAQ Standard disability index, Percent Change from Baseline, Q1: −16.67%
SHAQ Standard disability index, Percent Change from Baseline, Q3: 0.00%
SHAQ Visual Analog Scale-Breathing Problems, Change from Baseline, Max: 2.80
SHAQ Visual Analog Scale-Breathing Problems, Change from Baseline, Mean (SD): 0.500 (2.5599)
SHAQ Visual Analog Scale-Breathing Problems, Change from Baseline, Median: 1.050
SHAQ Visual Analog Scale-Breathing Problems, Change from Baseline, Min: −2.90
SHAQ Visual Analog Scale-Breathing Problems, Change from Baseline, Q1: −1.450
SHAQ Visual Analog Scale-Breathing Problems, Change from Baseline, Q3: 2.450
SHAQ Visual Analog Scale-Breathing Problems, In Clinic Visit (Day 12), Max: 9.20
SHAQ Visual Analog Scale-Breathing Problems, In Clinic Visit (Day 12), Mean (SD): 4.300 (4.8840)
SHAQ Visual Analog Scale-Breathing Problems, In Clinic Visit (Day 12), Median: 4.000
SHAQ Visual Analog Scale-Breathing Problems, In Clinic Visit (Day 12), Min: 0.00
SHAQ Visual Analog Scale-Breathing Problems, In Clinic Visit (Day 12), Q1: 0.100
SHAQ Visual Analog Scale-Breathing Problems, In Clinic Visit (Day 12), Q3: 8.500
SHAQ Visual Analog Scale-Breathing Problems, Percent Change from Baseline, Max: 56.0%
SHAQ Visual Analog Scale-Breathing Problems, Percent Change from Baseline, Mean (SD): −2.66 (79.815) %
SHAQ Visual Analog Scale-Breathing Problems, Percent Change from Baseline, Median: 29.58%
SHAQ Visual Analog Scale-Breathing Problems, Percent Change from Baseline, Min: −93.5%
SHAQ Visual Analog Scale-Breathing Problems, Percent Change from Baseline, Q1: −93.55%
SHAQ Visual Analog Scale-Breathing Problems, Percent Change from Baseline, Q3: 56.00%
SHAQ Visual Analog Scale-Intestinal Problems, Change from Baseline, Max: 1.80
SHAQ Visual Analog Scale-Intestinal Problems, Change from Baseline, Mean (SD): −0.125 (1.6800)
SHAQ Visual Analog Scale-Intestinal Problems, Change from Baseline, Median: 0.000
SHAQ Visual Analog Scale-Intestinal Problems, Change from Baseline, Min: −2.30
SHAQ Visual Analog Scale-Intestinal Problems, Change from Baseline, Q1: −1.150
SHAQ Visual Analog Scale-Intestinal Problems, Change from Baseline, Q3: 0.900
SHAQ Visual Analog Scale-Intestinal Problems, In Clinic Visit (Day 12), Max: 9.20
SHAQ Visual Analog Scale-Intestinal Problems, In Clinic Visit (Day 12), Mean (SD): 3.025 (4.3162)
SHAQ Visual Analog Scale-Intestinal Problems, In Clinic Visit (Day 12), Median: 1.450
SHAQ Visual Analog Scale-Intestinal Problems, In Clinic Visit (Day 12), Min: 0.00
SHAQ Visual Analog Scale-Intestinal Problems, In Clinic Visit (Day 12), Q1: 0.050
SHAQ Visual Analog Scale-Intestinal Problems, In Clinic Visit (Day 12), Q3: 6.000
SHAQ Visual Analog Scale-Intestinal Problems, Percent Change from Baseline, Max: 24.3%
SHAQ Visual Analog Scale-Intestinal Problems, Percent Change from Baseline, Mean (SD): −6.92 (35.225) %
SHAQ Visual Analog Scale-Intestinal Problems, Percent Change from Baseline, Median: 0.00%
SHAQ Visual Analog Scale-Intestinal Problems, Percent Change from Baseline, Min: −45.1%
SHAQ Visual Analog Scale-Intestinal Problems, Percent Change from Baseline, Q1: −45.10%
SHAQ Visual Analog Scale-Intestinal Problems, Percent Change from Baseline, Q3: 24.32%
SHAQ Visual Analog Scale-Pain, Change from Baseline, Max: 1.50
SHAQ Visual Analog Scale-Pain, Change from Baseline, Mean (SD): 1.000 (0.4359)
SHAQ Visual Analog Scale-Pain, Change from Baseline, Median: 0.800
SHAQ Visual Analog Scale-Pain, Change from Baseline, Min: 0.70
SHAQ Visual Analog Scale-Pain, Change from Baseline, Q1: 0.700
SHAQ Visual Analog Scale-Pain, Change from Baseline, Q3: 1.500
SHAQ Visual Analog Scale-Pain, In Clinic Visit (Day 12), Max: 9.20
SHAQ Visual Analog Scale-Pain, In Clinic Visit (Day 12), Mean (SD): 5.300 (4.1577)
SHAQ Visual Analog Scale-Pain, In Clinic Visit (Day 12), Median: 5.850
SHAQ Visual Analog Scale-Pain, In Clinic Visit (Day 12), Min: 0.30
SHAQ Visual Analog Scale-Pain, In Clinic Visit (Day 12), Q1: 1.900
SHAQ Visual Analog Scale-Pain, In Clinic Visit (Day 12), Q3: 8.700
SHAQ Visual Analog Scale-Pain, Percent Change from Baseline, Max: 75.0%
SHAQ Visual Analog Scale-Pain, Percent Change from Baseline, Mean (SD): 31.35 (37.825) %
SHAQ Visual Analog Scale-Pain, Percent Change from Baseline, Median: 10.81%
SHAQ Visual Analog Scale-Pain, Percent Change from Baseline, Min: 8.2%
SHAQ Visual Analog Scale-Pain, Percent Change from Baseline, Q1: 8.24%
SHAQ Visual Analog Scale-Pain, Percent Change from Baseline, Q3: 75.00%
SHAQ Visual Analog Scale-Raynaud's, Change from Baseline, Max: −0.10
SHAQ Visual Analog Scale-Raynaud's, Change from Baseline, Mean (SD): −0.825 (0.9674)
SHAQ Visual Analog Scale-Raynaud's, Change from Baseline, Median: −0.500
SHAQ Visual Analog Scale-Raynaud's, Change from Baseline, Min: −2.20
SHAQ Visual Analog Scale-Raynaud's, Change from Baseline, Q1: −1.500
SHAQ Visual Analog Scale-Raynaud's, Change from Baseline, Q3: −0.150
SHAQ Visual Analog Scale-Raynaud's, In Clinic Visit (Day 12), Max: 9.20
SHAQ Visual Analog Scale-Raynaud's, In Clinic Visit (Day 12), Mean (SD): 4.950 (3.7749)
SHAQ Visual Analog Scale-Raynaud's, In Clinic Visit (Day 12), Median: 5.200
SHAQ Visual Analog Scale-Raynaud's, In Clinic Visit (Day 12), Min: 0.20
SHAQ Visual Analog Scale-Raynaud's, In Clinic Visit (Day 12), Q1: 2.200
SHAQ Visual Analog Scale-Raynaud's, In Clinic Visit (Day 12), Q3: 7.700
SHAQ Visual Analog Scale-Raynaud's, Percent Change from Baseline, Max: −3.1%
SHAQ Visual Analog Scale-Raynaud's, Percent Change from Baseline, Mean (SD): −19.71 (16.460) %
SHAQ Visual Analog Scale-Raynaud's, Percent Change from Baseline, Median: −20.67%
SHAQ Visual Analog Scale-Raynaud's, Percent Change from Baseline, Min: −34.4%
SHAQ Visual Analog Scale-Raynaud's, Percent Change from Baseline, Q1: −33.85%
SHAQ Visual Analog Scale-Raynaud's, Percent Change from Baseline, Q3: −5.56%
SHAQ alternative disability index, Change from Baseline, Max: 0.00
SHAQ alternative disability index, Change from Baseline, Mean (SD): −0.094 (0.0625)
SHAQ alternative disability index, Change from Baseline, Median: −0.125
SHAQ alternative disability index, Change from Baseline, Min: −0.13
SHAQ alternative disability index, Change from Baseline, Q1: −0.125
SHAQ alternative disability index, Change from Baseline, Q3: −0.063
SHAQ alternative disability index, In Clinic Visit (Day 12), Max: 1.00
SHAQ alternative disability index, In Clinic Visit (Day 12), Mean (SD): 0.375 (0.4787)
SHAQ alternative disability index, In Clinic Visit (Day 12), Median: 0.250
SHAQ alternative disability index, In Clinic Visit (Day 12), Min: 0.00
SHAQ alternative disability index, In Clinic Visit (Day 12), Q1: 0.000
SHAQ alternative disability index, In Clinic Visit (Day 12), Q3: 0.750
SHAQ alternative disability index, Percent Change from Baseline, Max: −11.1%
SHAQ alternative disability index, Percent Change from Baseline, Mean (SD): −43.70 (48.956) %
SHAQ alternative disability index, Percent Change from Baseline, Median: −20.00%
SHAQ alternative disability index, Percent Change from Baseline, Min: −100.0%
SHAQ alternative disability index, Percent Change from Baseline, Q1: −100.00%
SHAQ alternative disability index, Percent Change from Baseline, Q3: −11.11%

— US20240148709A1, “METHODS OF TREATING EYE PAIN AND EYE DISORDERS” (Aisa Pharma, Inc., priority 2022, published 2024)
